Here are results for twelve compounds from PubChem BioAssay AID248 (DTP/NCI, 2004).

This experiment concerns L1210 leukemia ip in BDF1 mice, survival T/C. In words: NCI In Vivo Anticancer Drug Screen. Data for tumor model L1210 Leukemia (intraperitoneal) in B6D2F1 (BDF1) mice. The conditions noted are these: endpoint: mean survival time, higher = longer survival. The method in brief:
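Read-out is survival time, reported as the treated-group measurement over the vehicle-control measurement.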

[1] abbreviates: dose: 50.0 mg/kg/injection, schedule: Q01DX001 (ip), vehicle: saline.
Setting [2] is: dose: 100.0 mg/kg/injection, schedule: Q01DX001 (ip), vehicle: saline.
Setting [3] is: dose: 200.0 mg/kg/injection, schedule: Q01DX001 (ip), vehicle: saline.
Where [4] appears, read: dose: 400.0 mg/kg/injection, schedule: Q01DX001 (ip), vehicle: saline.

“And” between values parts separate entries of the source, which are not always exact repeats. Equal values may be shown once. Toxic doses and inconclusive results are not listed.

Regarding `Nc1nc(SCc2ccccc2)c2[nH]cnc2n1`, the T/C runs as follows: (dose: 4.0 mg/kg/injection, schedule: Q01DX Z (ip), vehicle: carboxymethylcellulose (CMC)) 124 % of control; (dose: 5.0 mg/kg/injection, schedule: Q03DX Z (ip), vehicle: carboxymethylcellulose (CMC)) 92 % of control; (dose: 8.0 mg/kg/injection, schedule: Q01DX010 (ip), vehicle: saline) 100 % of control; (dose: 8.0 mg/kg/injection, schedule: Q01DX Z (oral), vehicle: carboxymethylcellulose (CMC)) 158 % of control; (dose: 10.0 mg/kg/injection, schedule: Q01DX Z (ip), vehicle: carboxymethylcellulose (CMC)) 152 % of control; (dose: 10.0 mg/kg/injection, schedule: Q03DX Z (ip), vehicle: carboxymethylcellulose (CMC)) 116 % of control. Besides, the T/C by setting is: (dose: 15.0 mg/kg/injection, schedule: Q03DX Z (ip), vehicle: carboxymethylcellulose (CMC)) 124 % of control; (dose: 20.0 mg/kg/injection, schedule: Q01DX001 (ip), vehicle: carboxymethylcellulose (CMC)) 151 % of control; (dose: 20.0 mg/kg/injection, schedule: Q03DX Z (ip), vehicle: carboxymethylcellulose (CMC)) 216 % of control; (dose: 41.0 mg/kg/injection, schedule: Q01DX001 (ip), vehicle: carboxymethylcellulose (CMC)) 163 % of control; (dose: 41.0 mg/kg/injection, schedule: Q03DX Z (ip), vehicle: carboxymethylcellulose (CMC)) 158 % of control; (dose: 41.0 mg/kg/injection, schedule: Q07DX Z (ip), vehicle: carboxymethylcellulose (CMC)) 165 % of control. The T/C is 118 % of control (dose: 60.0 mg/kg/injection, schedule: Q01DX Z (ip), vehicle: carboxymethylcellulose (CMC)); 108 % of control (dose: 62.5 mg/kg/injection, schedule: Q01DX010 (ip), vehicle: saline); 124 % of control (dose: 64.0 mg/kg/injection, schedule: Q01DX Z (oral), vehicle: carboxymethylcellulose (CMC)); 157 % of control (dose: 82.0 mg/kg/injection, schedule: Q01DX001 (ip), vehicle: carboxymethylcellulose (CMC)); 168 % of control (dose: 82.0 mg/kg/injection, schedule: Q07DX Z (ip), vehicle: carboxymethylcellulose (CMC)); 163 % of control (dose: 86.0 mg/kg/injection, schedule: Q01DX001 (ip), vehicle: carboxymethylcellulose (CMC)). The T/C was 103 % of control (dose: 125.0 mg/kg/injection, schedule: Q01DX010 (ip), vehicle: saline); 160 % of control (dose: 129.0 mg/kg/injection, schedule: Q01DX001 (ip), vehicle: carboxymethylcellulose (CMC)); 168 % of control and 181 % of control (dose: 195.0 mg/kg/injection, schedule: Q01DX001 (ip), vehicle: carboxymethylcellulose (CMC)); 101 % of control (dose: 292.0 mg/kg/injection, schedule: Q03DX Z (ip), vehicle: carboxymethylcellulose (CMC)); 114 % of control (dose: 292.0 mg/kg/injection, schedule: Q07DX Z (ip), vehicle: carboxymethylcellulose (CMC)).
Consider `CC(=O)Nc1ccccc1-c1ccc([N+](=O)[O-])cc1`, for which the T/C is, setting by setting: (dose: 100.0 mg/kg/injection, schedule: Q04DX003 (ip), vehicle: saline with Tween-80) 110 % of control; (dose: 200.0 mg/kg/injection, schedule: Q04DX003 (ip), vehicle: saline with Tween-80) 101 % of control; (dose: 400.0 mg/kg/injection, schedule: Q04DX003 (ip), vehicle: saline with Tween-80) 101 % of control.
As for `NC(CCl)=NC1CCCCC1`, the T/C is 106 % of control (dose: 25.0 mg/kg/injection, schedule: Q04DX002 (ip), vehicle: saline); 100 % of control (dose: 50.0 mg/kg/injection, schedule: Q04DX002 (ip), vehicle: saline); 110 % of control and 120 % of control (dose: 100.0 mg/kg/injection, schedule: Q04DX002 (ip), vehicle: saline).
On to `COc1ccc(C(=O)/C=C\c2ccc(Cl)c(Cl)c2)cc1`, for which the T/C was 100 % of control (dose: 100.0 mg/kg/injection, schedule: Q04DX002 (ip), vehicle: Klucel (hydroxypropylcellulose) (HPC)); 97 % of control (dose: 200.0 mg/kg/injection, schedule: Q04DX002 (ip), vehicle: Klucel (hydroxypropylcellulose) (HPC)); 107 % of control (dose: 400.0 mg/kg/injection, schedule: Q04DX002 (ip), vehicle: Klucel (hydroxypropylcellulose) (HPC)).
Regarding `O=C(Nc1ccccc1F)C(F)(F)F`, the T/C (dose: 100.0 mg/kg/injection, schedule: Q04DX003 (ip), vehicle: Klucel (hydroxypropylcellulose) (HPC)) is 103 % of control; the T/C (dose: 200.0 mg/kg/injection, schedule: Q04DX003 (ip), vehicle: Klucel (hydroxypropylcellulose) (HPC)) is 105 % of control; the T/C (dose: 400.0 mg/kg/injection, schedule: Q04DX003 (ip), vehicle: Klucel (hydroxypropylcellulose) (HPC)) is 97 % of control.
For `O=C(SCc1ccccc1)C(O)c1ccccc1` (stereo unspecified), the T/C is, setting by setting: (dose: 100.0 mg/kg/injection, schedule: Q04DX003 (ip), vehicle: saline) 94 % of control; (dose: 200.0 mg/kg/injection, schedule: Q04DX003 (ip), vehicle: saline) 100 % of control; (dose: 400.0 mg/kg/injection, schedule: Q04DX003 (ip), vehicle: saline) 97 % of control.
In the case of `O=C1C=CC(=O)N1CCc1ccccc1`, the T/C runs as follows: (dose: 3.0 mg/kg/injection, schedule: Q01DX009 (ip), vehicle: Klucel (hydroxypropylcellulose) (HPC)) 106 % of control; (dose: 5.0 mg/kg/injection, schedule: Q01DX009 (ip), vehicle: saline with Tween-80) 91 % of control; (dose: 6.0 mg/kg/injection, schedule: Q01DX009 (ip), vehicle: Klucel (hydroxypropylcellulose) (HPC)) 95 % of control; (dose: 10.0 mg/kg/injection, schedule: Q01DX009 (ip), vehicle: saline with Tween-80) 87 % of control; (dose: 12.0 mg/kg/injection, schedule: Q01DX009 (ip), vehicle: Klucel (hydroxypropylcellulose) (HPC)) 103 % of control; (dose: 12.5 mg/kg/injection, schedule: Q01DX009 (ip), vehicle: Klucel (hydroxypropylcellulose) (HPC)) 97 % of control. Besides, the T/C runs as follows: (dose: 20.0 mg/kg/injection, schedule: Q01DX009 (ip), vehicle: saline with Tween-80) 101 % of control; (dose: 20.0 mg/kg/injection, schedule: Q04DX003 (ip), vehicle: saline with Tween-80) 95 % of control.
For `c1ccc(CCc2ccccc2)cc1`, the T/C by setting is: (dose: 100.0 mg/kg/injection, schedule: Q01DX009 (ip), vehicle: saline with Tween-80) 91 % of control; (dose: 100.0 mg/kg/injection, schedule: Q04DX002 (ip), vehicle: saline with Tween-80) 95 % of control; (dose: 200.0 mg/kg/injection, schedule: Q01DX009 (ip), vehicle: saline with Tween-80) 91 % of control; (dose: 200.0 mg/kg/injection, schedule: Q04DX002 (ip), vehicle: saline with Tween-80) 98 % of control; (dose: 400.0 mg/kg/injection, schedule: Q01DX009 (ip), vehicle: saline with Tween-80) 94 % of control; (dose: 400.0 mg/kg/injection, schedule: Q04DX002 (ip), vehicle: saline with Tween-80) 98 % of control.
Take `O=[N+]([O-])c1ccc(N=NNc2ccc(N=Nc3ccccc3)cc2)cc1`: the T/C runs as follows: (dose: 25.0 mg/kg/injection, schedule: Q01DX009 (ip), vehicle: Klucel (hydroxypropylcellulose) (HPC)) 91 % of control; (dose: 25.0 mg/kg/injection, schedule: Q04DX003 (ip), vehicle: other) 89 % of control; (dose: 50.0 mg/kg/injection, schedule: Q01DX009 (ip), vehicle: Klucel (hydroxypropylcellulose) (HPC)) 102 % of control; (dose: 50.0 mg/kg/injection, schedule: Q04DX003 (ip), vehicle: other) 95 % of control; (dose: 100.0 mg/kg/injection, schedule: Q04DX003 (ip), vehicle: other) 92 % of control.
In the case of `CN(C)c1nc2c(=O)[nH]cnc2n1C1OC(CO)C(O)C1O` (stereo unspecified), the T/C under setting [1] is 95 % of control, the T/C under setting [2] is 93 % of control, the T/C under setting [3] was 112 % of control and the T/C under setting [4] was 95 % of control.
On to `Cc1ccc(C(=O)c2ccc(Cl)cc2)cc1`, for which the T/C by setting is: under setting [1], 90 % of control; under setting [2], 98 % of control; under setting [3], 102 % of control; under setting [4], 96 % of control.
In the case of `CC(C)C(=O)[O][Sn]([CH3])([CH3])[CH3]`, the T/C reads like this: (dose: 0.19 mg/kg/injection, schedule: Q01DX009 (ip), vehicle: Klucel (hydroxypropylcellulose) (HPC)) 90 % of control; (dose: 0.39 mg/kg/injection, schedule: Q01DX009 (ip), vehicle: Klucel (hydroxypropylcellulose) (HPC)) 95 % of control; (dose: 0.78 mg/kg/injection, schedule: Q01DX009 (ip), vehicle: Klucel (hydroxypropylcellulose) (HPC)) 93 % of control and 106 % of control; (dose: 0.78 mg/kg/injection, schedule: Q04DX002 (ip), vehicle: Klucel (hydroxypropylcellulose) (HPC)) 95 % of control; (dose: 1.56 mg/kg/injection, schedule: Q04DX002 (ip), vehicle: Klucel (hydroxypropylcellulose) (HPC)) 100 % of control; (dose: 3.12 mg/kg/injection, schedule: Q04DX002 (ip), vehicle: Klucel (hydroxypropylcellulose) (HPC)) 103 % of control.
